Patent US8067456B2 (AEterna Zentaris GmbH, priority 2004, dated 2011)
In brackets after ≈: the same amount, converted by molar mass.

Key:
castrated rats = experiment: LH concentration suppression in the plasma of castrated rats; format: in vivo, rat; settings: 100 mg/kg oral in Solutol HS15/1,2-propane-diol (3:1)
Method: The LH concentration in the plasma of castrated rats was measured using the rat luteinizing hormone (rLH) enzyme immunoassay (EIA) system ELISA (RPN 2562) from Amersham Pharmacia Biotech or of LH RIA-AH R002 rats; from Biocode-Hycel, Liege, Belgium. All other chemicals used were from commercial sources in the highest purity available.
10 days before the start of the test, male Sprague Dawley rats (Harlan Winkelmann, Germany) weighing 190-220 g were anesthetized with ether and castrated and provided with a silicone catheter for permanent blood sampling.
At the start of the test, before administration of the substance, blood samples were taken and the LH level determined. The substance was then administered orally in the desired concentration. The number of animals used in each group was 8. At the stated times, further blood samples were taken. The blood was collected in heparinized sample tubes on ice, and the plasma was obtained by centrifugation at 3000 g for 10 minutes. The plasma samples were stored at −20° C. until the LH concentration was measured by ELISA or RIA. The LH concentration was determined by an ELISA or RIA in duplicate determination in accordance with the manufacturer's (Amersham Pharmacia Biotech; Biocode-Hycel) instructions.
All the other data points for each individual animal were calculated as relative concentration compared with the LH concentration before treatment.

LHRH receptor = target: T1, LHRH receptor (Rattus norvegicus, UniProt P30969); experiment: LHRH receptor-ligand binding assay (membrane preparations from rat pituitary cells); settings: competition with 0.05 nM [125I][D-Trp6]-LHRH, 90 min, 4° C., rat pituitary membranes
T1 construct: rat pituitary cells which naturally strongly express the LHRH receptor; from tissue; host or cells: rat pituitary cells (membrane preparation)
T1 sequence (P30969 1-327): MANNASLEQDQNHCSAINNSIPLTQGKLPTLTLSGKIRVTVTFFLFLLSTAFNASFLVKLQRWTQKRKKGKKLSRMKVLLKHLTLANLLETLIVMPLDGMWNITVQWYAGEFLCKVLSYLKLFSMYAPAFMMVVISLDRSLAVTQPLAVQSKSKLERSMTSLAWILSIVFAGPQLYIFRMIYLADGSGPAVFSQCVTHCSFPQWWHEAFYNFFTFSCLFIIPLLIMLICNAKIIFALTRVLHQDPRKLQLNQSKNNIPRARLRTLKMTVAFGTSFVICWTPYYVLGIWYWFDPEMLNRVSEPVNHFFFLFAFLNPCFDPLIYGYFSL
Method: Heterologous competition experiments were carried out using membrane preparations from rat pituitary cells which naturally strongly express the LHRH receptor. The ligand used in this case was [^125I][D-Trp^6]-LHRH in a concentration of 0.05 nM. Unlabeled [D-Trp^6]-LHRH was used in a concentration of 1 μM, or the test substance was used in the desired concentration, for competition. After an incubation time of 90 minutes at 4° C., the bound ligand was measured by scintillation (Halmos et al., Proc. Natl. Acad. Sci. USA, 1996, 93, 2398).
The result obtained was the percentage proportion of bound ligand in the presence of the competitor related to the specifically bound proportion of the control (see result for selected compounds in Table 3). EC50 values were calculated by nonlinear regression analysis of the competition plots.

[1] = tested on: LHRH-stimulated LH secretion from rat pituitary cells; experiment: Inhibition of LHRH-induced LH secretion from rat pituitary cells in vitro; format: cell-based; settings: LHRH 10 nM, 3 hours
Method: The LH concentration in cell culture supernatants was measured using the rat luteinizing hormone (rLH) enzyme immunoassay (EIA) system ELISA (RPN 2562) from Amersham Pharmacia Biotech. All other chemicals used were from commercial sources in the highest purity available.
Juvenile male Wistar rats (Harlan Winkelmann, Germany) were sacrificed by decapitation, and the pituitaries were removed and taken up in Hanks' buffer (HBSS) with 0.3% BSA and 10 mM HEPES (pH 7.4). Pituitaries from 20 rats were required to carry out one experiment. The cells of the anterior lobe of the pituitary were separated from the remaining tissue by incubation in Hanks' buffer with 10 mM HEPES (pH 7.4), 0.3% BSA, 1 mg/ml hyaluronidase (type VIII), 1 mg/ml soybean trypsin inhibitor, 10 μg/ml DNAsel and 1 mg/ml papain at 37° C. for 30 minutes A sterile Pasteur pipette was used to disperse the cells, and they were subsequently pelleted by centrifugation. The cells were seeded in a density of 2.5×10^5 cells/well of a collagen-coated 48-well plate (Becton Dickinson) in DMEM medium (Invitrogen Life Technologies, Germany) with 10% fetal calf serum (FCS; Invitrogen Life Technologies, Germany), 10 mill nonessential amino acids and 10 mill Pen/Strep (penicillin/streptomycin).
The medium was changed after incubation at 37° C., 5% CO2 and 95% humidity for 48 h. The medium was replaced by LHRH-containing (10 nM) medium or medium with LHRH (10 nM) and test substance in the concentration indicated (table). After a further incubation for 3 hours, the cell supernatant was harvested and frozen at −20° C. The LH content was determined by means of ELISA in triplicate determination in accordance with the manufacturer's (Amersham Pharmacia Biotech) instructions.
In the following table, “% Inhibition” describes the quotient of LHRH-stimulated LH secretion with (“LH (ng/ml)” and without the addition of the test substance. The values originate from different, independent experiments.

[2] = Metabolic stability in rat liver microsomes; format: in vitro ADME; settings: 1 μM, 37° C., NADPH
Method: (§1) The metabolic stability in relation to liver microsomes (species human, rat) was determined in accordance with the following description: the substances were incubated at a test concentration of 1 […] An HPLC MS/MS method was subsequently used to quantify the unmetabolized amount of starting compound relative to 100%.

[3] = Metabolic stability in human liver microsomes; format: in vitro ADME; settings: 1 μM, 37° C., NADPH
Method: as §1

[4] = Saturation solubility in water; format: physicochemical; settings: water, thermodynamic from solid; maximum of 1% DMSO added, HPLC UV
Method: The saturation solubility in water was determined in accordance with the following description: to initiate dissolving of the substances and to improve the wetting of the samples, a maximum of 1% DMSO was added. The content was checked by using an HPLC UV method.

EC50 (LHRH receptor): 6.9 nM
recovery at 1 μM [2]: 78%
recovery at 1 μM [3]: 65%
solubility [4]: 54.6 µg/mL (≈ 80.9 µM)
Structure (SMILES): CCC(C)[C@H](NC(=O)OCc1ccccc1)C(=O)N[C@]1(C(=O)N[C@H](C(N)=S)C(C)CC)CCc2[nH]c3c(Cl)cc(Cl)cc3c2C1 (stereo partly drawn) [Compound 7, benzyl {(S)-1-[(R)-6,8-dichloro-3-((S)-2-methyl-1-thiocarbamoylbutylcarbamoyl)-2,3,4,9-tetrahydro-1H-carbazol-3-ylcarbamoyl]-2-methylbutyl}carbamate]
Relative LH concentration (%) (averages ± SEM compared with the concentration before treatment) (castrated rats; time 0 h): 91.8 ± 19.1%
Relative LH concentration (%) (averages ± SEM compared with the concentration before treatment) (castrated rats; time +4 h): 19.6 ± 8.9%
Relative LH concentration (%) (averages ± SEM compared with the concentration before treatment) (castrated rats; time +6 h): 10.1 ± 3.2%
Relative LH concentration (%) (averages ± SEM compared with the concentration before treatment) (castrated rats; time +24 h): 65.1 ± 13.9%
Relative LH concentration (%) (averages ± SEM compared with the concentration before treatment) (castrated rats; time +48 h): 110.6 ± 33.0%
Relative LH concentration (%) (averages ± SEM compared with the concentration before treatment) (castrated rats; time +72 h): 268.4 ± 93.0%
Relative LH concentration (%) (averages ± SEM compared with the concentration before treatment) (castrated rats; time −2 h (before treatment)): 110.8 ± 12.2%
Relative LH concentration (%) (averages ± SEM compared with the concentration before treatment) (castrated rats; time −4 h (before treatment)): 97.4 ± 15.3%
inhibition at 0.033 µM ([1]; Rattus norvegicus, test substance 3.3 × 10^−8 M, read-out: % Inhibition): 83%
inhibition at 0.0033 µM ([1]; Rattus norvegicus, test substance 3.3 × 10^−9 M): 43%
LH (ng/ml) ± SD ([1]; test substance 3.3 × 10^−8 M): 79.9 ± 15.0 ng/mL
LH (ng/ml) ± SD ([1]; test substance 3.3 × 10^−9 M): 194.0 ± 13.2 ng/mL
